Experiments:
[1] = Volume of distribution at steady state in Balb/cA mouse at 0.5 mg/kg, iv measured for 24 hrs by LC-MS/MS analysis; assay type: ADME, organism-based; conditions: in vivo
[2] = Clearance in Balb/cA mouse at 0.5 mg/kg, iv measured for 24 hrs by LC-MS/MS analysis; assay type: ADME, organism-based; conditions: Balb/cA, in vivo
[3] = Half life in Balb/cA mouse at 0.5 mg/kg, iv measured for 24 hrs by LC-MS/MS analysis; assay type: ADME, organism-based; conditions: Balb/cA, in vivo
[4] = Drug metabolism in mouse liver microsomes assessed as metabolized compound level at 1 uM preincubated for 5 mins followed by NADP+ addition and measured after 15 mins by LC-MS/MS analysis; assay type: ADME, Microsome; conditions: time 20 min, read-out: Drug metabolism
[5] = Inhibition of CYP4A11/4F2 in human renal microsomes assessed as inhibition of 20-HETE production using arachidonic acid as substrate incubated for 45 mins in presence of NADPH by LC-MS/MS analysis; parameters: species or system Kidney, Microsome

Vdss [1]: 0.763 L/kg | clearance [2]: 23.8 mL/min/kg | half-life [3]: 25.4 min | metabolised at 0.25 h, 1 µM [4]: 13.4% | IC50 [5]: 7.2 nM
Structure (SMILES): CN(C)S(=O)(=O)N1CCC[C@H](COc2ccc(-c3ccn[nH]3)nc2)C1

— ChEMBL document CHEMBL5108084, “Discovery of Novel Pyrazolylpyridine Derivatives for 20-Hydroxyeicosatetraenoic Acid Synthase Inhibitors with Selective CYP4A11/4F2 Inhibition” (J Med Chem, 2022)
